The target in experiment [1] is T1, SOS1 and KRAS G12C interaction (Homo sapiens, UniProt Q07889).
T1 sequence (Q07889 564-1049 limits assumed): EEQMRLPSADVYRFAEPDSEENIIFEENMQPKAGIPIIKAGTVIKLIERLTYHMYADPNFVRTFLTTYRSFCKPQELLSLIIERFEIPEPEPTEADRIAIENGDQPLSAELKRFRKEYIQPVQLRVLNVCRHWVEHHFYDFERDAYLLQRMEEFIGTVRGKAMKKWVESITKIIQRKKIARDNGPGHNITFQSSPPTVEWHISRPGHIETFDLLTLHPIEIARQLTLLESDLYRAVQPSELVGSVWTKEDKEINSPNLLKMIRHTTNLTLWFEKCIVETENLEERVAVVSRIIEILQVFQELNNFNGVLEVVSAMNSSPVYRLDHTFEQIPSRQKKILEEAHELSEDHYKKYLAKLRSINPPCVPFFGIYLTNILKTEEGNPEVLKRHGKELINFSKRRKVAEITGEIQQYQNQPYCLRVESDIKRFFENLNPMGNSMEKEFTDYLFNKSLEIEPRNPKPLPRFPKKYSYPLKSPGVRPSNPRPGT
Put plainly: Biochemical analysis of the inhibitory activity of SOS1 and KRAS G12C interaction (time-resolved fluorescence, 665/615 nm). The procedure:
Biochemical analysis of the inhibitory activity of SOS1 and KRAS G12C interaction
In this experimental example, the efficacy of the compound according to the present invention in inhibiting the binding of KRAS and SOS1 was biochemically measured. A KRAS G12C working solution was prepared by adding biotin-linked KRAS G12C protein and europium-linked streptavidin to assay buffer solution (20 mM HEPES, 50 mM NaCl, 200 µg/mL […] (BSA), 0.01% Pluronic F127). Then, SOS1, in which a tag consisting of six histidine residues is covalently linked, and anti-histidine tag antibody D2 were added to the assay buffer to prepare an SOS1 working solution. After these two working solutions were added to the wells of a well plate, solutions diluted according to the experimental concentration of the test compound from the 10 mM dimethyl sulfoxide (DMSO) stock solution of the Example compound or positive control compound were added to the wells in 100 nL aliquots using an Echo automatic dispenser (Beckman Coulter, USA), or a DMSO blank was added to the wells.

In experiment [2] the target is T2, SOS1 and KRAS G12D interaction (Homo sapiens, UniProt Q07889).
T2 sequence (Q07889 564-1049 limits assumed): T1 sequence (Q07889 564-1049 limits assumed)
It counts as biochemical.

In experiment [3] the target is T3, SOS2 and KRAS G12C interaction (Homo sapiens, UniProt Q07890).
T3 sequence (Q07890 1-1332): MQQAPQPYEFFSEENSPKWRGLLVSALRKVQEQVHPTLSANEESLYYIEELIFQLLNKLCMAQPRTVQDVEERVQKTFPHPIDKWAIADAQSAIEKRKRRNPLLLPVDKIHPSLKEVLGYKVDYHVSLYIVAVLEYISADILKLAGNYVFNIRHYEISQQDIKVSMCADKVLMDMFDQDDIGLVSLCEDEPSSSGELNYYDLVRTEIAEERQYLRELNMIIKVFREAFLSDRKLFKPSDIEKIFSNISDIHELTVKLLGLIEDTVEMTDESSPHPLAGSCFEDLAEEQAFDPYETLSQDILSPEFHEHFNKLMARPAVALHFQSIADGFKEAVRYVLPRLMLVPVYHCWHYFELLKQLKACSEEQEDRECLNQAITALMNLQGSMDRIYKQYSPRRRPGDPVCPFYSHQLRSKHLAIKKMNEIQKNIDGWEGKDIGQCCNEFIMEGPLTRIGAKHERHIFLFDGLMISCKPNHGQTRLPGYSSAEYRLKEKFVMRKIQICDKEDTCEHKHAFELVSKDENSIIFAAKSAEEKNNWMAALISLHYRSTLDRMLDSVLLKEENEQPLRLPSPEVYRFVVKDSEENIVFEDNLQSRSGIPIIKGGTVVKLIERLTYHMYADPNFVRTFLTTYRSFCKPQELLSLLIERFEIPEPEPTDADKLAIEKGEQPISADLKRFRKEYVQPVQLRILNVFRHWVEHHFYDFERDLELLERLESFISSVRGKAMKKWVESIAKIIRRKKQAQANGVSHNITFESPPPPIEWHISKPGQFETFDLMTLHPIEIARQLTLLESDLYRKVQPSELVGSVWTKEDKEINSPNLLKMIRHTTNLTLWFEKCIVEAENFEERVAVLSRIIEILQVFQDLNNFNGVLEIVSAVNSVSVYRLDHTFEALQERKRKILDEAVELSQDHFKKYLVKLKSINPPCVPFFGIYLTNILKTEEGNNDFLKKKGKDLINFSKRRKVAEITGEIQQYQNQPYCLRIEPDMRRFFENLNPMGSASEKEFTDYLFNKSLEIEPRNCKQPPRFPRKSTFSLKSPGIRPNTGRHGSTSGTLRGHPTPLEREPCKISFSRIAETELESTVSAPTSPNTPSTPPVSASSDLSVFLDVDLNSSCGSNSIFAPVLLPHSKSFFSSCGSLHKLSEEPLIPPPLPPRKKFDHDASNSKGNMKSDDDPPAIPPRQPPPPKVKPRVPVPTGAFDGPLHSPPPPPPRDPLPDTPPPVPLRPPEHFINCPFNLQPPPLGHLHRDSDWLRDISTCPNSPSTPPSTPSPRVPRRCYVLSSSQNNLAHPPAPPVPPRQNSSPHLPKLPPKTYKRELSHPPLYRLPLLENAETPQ
The class given is biochemical.

Structures are written as SMILES.

One may read the IC50 as the concentration needed to halve the response being measured. Take `CNCc1ccccc1-c1c[se]c([C@@H](C)Nc2nc(C)nc3cc(OC)c(OC)cc23)c1` [Example 1, (R)-6,7-dimethoxyl-2-methyl-N-(1-(4-(2-((methylamino)methyl)phenyl)selenophen-2-yl)ethyl)quinazolin-4-amine]: the IC50 in experiment [1] was determined as 18.6 nM; in experiment [2] it was 8.4 nM; in experiment [3], 24600 nM.

(Values after EP4737453A1, “NOVEL SELENOPHENE DERIVATIVES” (Aigen Sciences Inc., priority 2023, dated 2025).)
